Measured values as given in PubChem BioAssay AID248 (DTP/NCI, 2004).
Several values for one entry are separate records, joined by “and”; a condition that tells them apart may be missing. Equal entries are not always repeated. Toxic doses and inconclusive results are not listed. Rule as the data show it: active = T/C of 150% or more; inactive = T/C below 125%.

System: L1210 leukemia ip in BDF1 mice, survival T/C
Assay: NCI In Vivo Anticancer Drug Screen. Data for tumor model L1210 Leukemia (intraperitoneal) in B6D2F1 (BDF1) mice
Details: endpoint: mean survival time, higher = longer survival
Method in brief: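 Transplanted-tumor mice were given test agent; controls received vehicle only. Survival readings from the two groups were divided (treated over control).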

[1] = dose: 12.5 mg/kg/injection, schedule: Q04DX002 (ip), vehicle: Klucel (hydroxypropylcellulose) (HPC)
[2] = dose: 25.0 mg/kg/injection, schedule: Q04DX002 (ip), vehicle: Klucel (hydroxypropylcellulose) (HPC)
[3] = dose: 50.0 mg/kg/injection, schedule: Q04DX002 (ip), vehicle: Klucel (hydroxypropylcellulose) (HPC)
[4] = dose: 100.0 mg/kg/injection, schedule: Q01DX009 (ip), vehicle: saline with Tween-80
[5] = dose: 200.0 mg/kg/injection, schedule: Q01DX009 (ip), vehicle: saline with Tween-80
[6] = dose: 100.0 mg/kg/injection, schedule: Q04DX003 (ip), vehicle: Klucel (hydroxypropylcellulose) (HPC)
[7] = dose: 200.0 mg/kg/injection, schedule: Q04DX003 (ip), vehicle: Klucel (hydroxypropylcellulose) (HPC)
[8] = dose: 400.0 mg/kg/injection, schedule: Q04DX003 (ip), vehicle: Klucel (hydroxypropylcellulose) (HPC)
[9] = dose: 100.0 mg/kg/injection, schedule: Q04DX003 (ip), vehicle: saline with Tween-80
[10] = dose: 200.0 mg/kg/injection, schedule: Q04DX003 (ip), vehicle: saline with Tween-80
[11] = dose: 100.0 mg/kg/injection, schedule: Q04DX002 (ip), vehicle: saline with Tween-80
[12] = dose: 200.0 mg/kg/injection, schedule: Q04DX002 (ip), vehicle: saline with Tween-80
[13] = dose: 400.0 mg/kg/injection, schedule: Q04DX002 (ip), vehicle: saline with Tween-80
[14] = dose: 100.0 mg/kg/injection, schedule: Q01DX001 (ip), vehicle: saline
[15] = dose: 200.0 mg/kg/injection, schedule: Q01DX001 (ip), vehicle: saline

Measured: T/C

CC(CCC(C)OS(C)(=O)=O)OS(C)(=O)=O (stereo not given)
inactive: dose: 2.0 mg/kg/injection, schedule: Q01DX010 (ip), vehicle: saline 86 % of control and 87 % of control | dose: 3.1 mg/kg/injection, schedule: Q01DX009 (ip), vehicle: Klucel (hydroxypropylcellulose) (HPC) 96 % of control | dose: 4.0 mg/kg/injection, schedule: Q01DX009 (ip), vehicle: saline 97 % of control | dose: 4.0 mg/kg/injection, schedule: Q01DX010 (ip), vehicle: saline 100 % of control | dose: 6.25 mg/kg/injection, schedule: Q01DX009 (ip), vehicle: Klucel (hydroxypropylcellulose) (HPC) 102 % of control and 103 % of control and 101 % of control | dose: 6.25 mg/kg/injection, schedule: Q04DX002 (ip), vehicle: Klucel (hydroxypropylcellulose) (HPC) 96 % of control | dose: 8.0 mg/kg/injection, schedule: Q01DX009 (ip), vehicle: saline 101 % of control | dose: 8.0 mg/kg/injection, schedule: Q01DX010 (ip), vehicle: saline 89 % of control and 90 % of control | dose: 12.5 mg/kg/injection, schedule: Q01DX009 (ip), vehicle: Klucel (hydroxypropylcellulose) (HPC) 105 % of control [middle of 4 runs] | [1] 96 % of control and 100 % of control | dose: 16.0 mg/kg/injection, schedule: Q01DX009 (ip), vehicle: saline 108 % of control | dose: 16.0 mg/kg/injection, schedule: Q01DX010 (ip), vehicle: saline 106 % of control and 114 % of control | dose: 25.0 mg/kg/injection, schedule: Q01DX009 (ip), vehicle: Klucel (hydroxypropylcellulose) (HPC) 102 % of control and 88 % of control and 108 % of control | [2] 96 % of control and 93 % of control and 94 % of control | dose: 32.0 mg/kg/injection, schedule: Q01DX009 (ip), vehicle: saline 103 % of control | dose: 50.0 mg/kg/injection, schedule: Q01DX009 (ip), vehicle: Klucel (hydroxypropylcellulose) (HPC) 87 % of control | dose: 50.0 mg/kg/injection, schedule: Q01DX009 (ip), vehicle: saline with Tween-80 91 % of control and 93 % of control | [3] 107 % of control | [4] 98 % of control and 97 % of control | [5] 91 % of control and 87 % of control

N#C/C(=C/c1ccc(O)cc1)C(=O)O
inactive: [6] 96 % of control | [7] 94 % of control | [8] 94 % of control

O=C(O)C1=C(C(=O)O)C2CCC1C2
inactive: [9] 100 % of control | [10] 88 % of control

CN(C)c1ccc(Cc2ccc(N(C)C)cc2[N+](=O)[O-])cc1
inactive: dose: 100.0 mg/kg/injection, schedule: Q01DX009 (ip), vehicle: Klucel (hydroxypropylcellulose) (HPC) 102 % of control | [6] 96 % of control | dose: 200.0 mg/kg/injection, schedule: Q01DX009 (ip), vehicle: Klucel (hydroxypropylcellulose) (HPC) 93 % of control | [7] 96 % of control | dose: 400.0 mg/kg/injection, schedule: Q01DX009 (ip), vehicle: Klucel (hydroxypropylcellulose) (HPC) 95 % of control | [8] 101 % of control

O=C(OCCc1ccccc1)c1ccccc1
inactive: [11] 100 % of control | [12] 100 % of control | [13] 103 % of control

Cc1c2cnccc2c(C)c2c1c1ccccc1n2CCNCCO
inactive: dose: 6.25 mg/kg/injection, schedule: Q01DX009 (ip), vehicle: saline with Tween-80 97 % of control | dose: 12.5 mg/kg/injection, schedule: Q01DX009 (ip), vehicle: saline with Tween-80 122 % of control | dose: 25.0 mg/kg/injection, schedule: Q01DX009 (ip), vehicle: saline with Tween-80 113 % of control | dose: 100.0 mg/kg/injection, schedule: Q04DX003 (ip), vehicle: saline sonified 111 % of control | dose: 200.0 mg/kg/injection, schedule: Q04DX003 (ip), vehicle: saline sonified 103 % of control

CCc1ccc(CCSCCc2ccc(CC)c[n+]2[O-])[n+]([O-])c1
inactive: [14] 96 % of control | [15] 100 % of control

COC1(c2ccccc2)Oc2ccccc2C(=O)C1(O)C[N+](=O)[O-] (stereo not given)
inactive: dose: 50.0 mg/kg/injection, schedule: Q01DX001 (ip), vehicle: saline 95 % of control | [14] 89 % of control | [15] 95 % of control | dose: 400.0 mg/kg/injection, schedule: Q01DX001 (ip), vehicle: saline 101 % of control

CC(=O)Nc1cc(C(=O)Nc2cccc(C3=NCCN3)c2)ccc1C(=O)Nc1cccc(C2=NCCN2)c1
inactive: dose: 1.3 mg/kg/injection, schedule: Q01DX Z (ip), vehicle: methylcellulose (MC) 96 % of control

COC(=O)N1C(C)=CC=CC=C1C
inactive: [1] 94 % of control | [2] 88 % of control | [3] 98 % of control | dose: 100.0 mg/kg/injection, schedule: Q04DX002 (ip), vehicle: Klucel (hydroxypropylcellulose) (HPC) 100 % of control

[Cl][Sn]([CH]1CCCCC1)([CH]1CCCCC1)[CH]1CCCCC1
inactive: dose: 12.5 mg/kg/injection, schedule: Q04DX002 (ip), vehicle: gum acacia 101 % of control | dose: 25.0 mg/kg/injection, schedule: Q04DX002 (ip), vehicle: gum acacia 101 % of control

Oc1cc(O)c(O)cc1O
inactive: dose: 6.25 mg/kg/injection, schedule: Q01DX009 (ip), vehicle: saline 102 % of control | dose: 6.25 mg/kg/injection, schedule: Q04DX003 (ip), vehicle: saline with Tween-80 93 % of control | dose: 12.5 mg/kg/injection, schedule: Q01DX009 (ip), vehicle: saline 102 % of control | dose: 12.5 mg/kg/injection, schedule: Q04DX003 (ip), vehicle: saline with Tween-80 97 % of control | dose: 25.0 mg/kg/injection, schedule: Q01DX009 (ip), vehicle: saline 110 % of control | dose: 25.0 mg/kg/injection, schedule: Q04DX003 (ip), vehicle: saline with Tween-80 98 % of control

COc1ccc(OC)c(N=C2C(=O)Nc3ccc(Br)cc32)c1
inactive: dose: 100.0 mg/kg/injection, schedule: Q01DX001 (ip), vehicle: saline with Tween-80 92 % of control | [4] 100 % of control | [11] 108 % of control and 113 % of control | [9] 101 % of control | dose: 200.0 mg/kg/injection, schedule: Q01DX001 (ip), vehicle: saline with Tween-80 88 % of control | [5] 94 % of control and 100 % of control | [12] 95 % of control and 97 % of control | [10] 93 % of control | dose: 400.0 mg/kg/injection, schedule: Q01DX001 (ip), vehicle: saline with Tween-80 90 % of control | dose: 400.0 mg/kg/injection, schedule: Q01DX009 (ip), vehicle: saline with Tween-80 101 % of control and 92 % of control | [13] 88 % of control and 89 % of control | dose: 400.0 mg/kg/injection, schedule: Q04DX003 (ip), vehicle: saline with Tween-80 88 % of control
